Measured values: patent US12180187B2, “1-phenyl-5-azinylpyrazolyl-3-oxyalkyl acids and their use for controlling unwanted plant growth” (BAYER AKTIENGESELLSCHAFT, priority 2019, dated 2024)

Columns and labels:
LOLRI = experiment: Pre-emergence action against LOLRI, 1280 g/ha; format: in vivo, Lolium rigidum; conditions: visual scoring after about 3 weeks vs untreated controls, 100% = plants have died, 0% = like control plants
Text: (§1) 1. Pre-Emergence Herbicidal Effect and Crop Plant Compatibility a) Seeds of mono- and dicotyledonous weed plants are placed in plastic pots in sandy loam soil (doubly sown with one species each of mono- or dicotyledonous weed plants per pot) and covered with soil. The compounds of the invention, formulated in the form of wettable powders (WP) or as emulsion concentrates (EC), are then applied onto the surface of the covering soil as aqueous suspension or emulsion with addition of 0.5% additive at a water application rate equivalent to 600 litres per hectare. After the treatment, the pots are placed in a greenhouse and kept under good growth conditions for the trial plants. After about 3 weeks, the effect of the preparations is scored visually in comparison with untreated controls as percentages. For example, 100% activity=the plants have died, 0% activity=like control plants. 1. Pre-Emergence Effectiveness Tables 1 to 12 below show the effects of selected compounds of the general formula (I) according to Tables 1 and 2 on various harmful plants and at an application rate corresponding to 1280 g/ha, which were obtained by the experimental procedure mentioned above.

POAAN [1] = experiment: Pre-emergence action against POAAN, 1280 g/ha; format: in vivo, Poa annua; conditions: visual scoring after about 3 weeks vs untreated controls, 100% = plants have died, 0% = like control plants
Text: as §1

MATIN [2] = experiment: Pre-emergence action against MATIN, 1280 g/ha; format: in vivo, Tripleurospermum inodorum (Matricaria inodora); conditions: scored visually after about 3 weeks vs untreated controls (100% = plants have died)
Text: as §1

DIGSA [3] = experiment: Pre-emergence action against DIGSA, 1280 g/ha; format: in vivo, Digitaria sanguinalis; conditions: visual scoring after about 3 weeks vs untreated controls, 100% = plants have died, 0% = like control plants
Text: as §1

STEME [4] = experiment: Pre-emergence action against STEME, 1280 g/ha; format: in vivo, Stellaria media; conditions: scored visually after about 3 weeks vs untreated controls (100% = plants have died)
Text: as §1

AMARE [5] = experiment: Post-emergence action against AMARE, 1.28 kg/ha; format: in vivo, Amaranthus retroflexus; conditions: dosage 1280 g/ha, visual rating about 3 weeks after treatment vs untreated controls (100% = plants died)
Procedure: (§2) • a) Seeds of mono- and dicotyledonous weed plants are placed in plastic pots in sandy loam soil (twin sowing with one species each of mono- or dicotyledonous weed plants per pot), covered with soil and cultivated in a greenhouse under controlled growth conditions. 2 to 3 weeks after sowing, the test plants are treated at the one-leaf stage. The compounds of the invention, formulated in the form of wettable powders (WP) or as emulsion concentrates (EC), are applied to the green parts of the plants as aqueous suspension or emulsion with addition of 0.5% additive at a water application rate equivalent to 600 litres per hectare. After the test plants have been kept in the greenhouse under optimum growth conditions for about 3 weeks, the activity of the preparations is rated visually in comparison to untreated controls. For example, 100% activity=the plants have died, 0% activity=like control plants. As shown by the results, compounds of the general formula (I) of the invention, in post-emergence treatment, have very good herbicidal efficacy (90% to 100% herbicidal action) against harmful plants such as Abutilon theophrasti, Digitaria sanguinalis, Echinochloa crus-galli, Matricaria inodora, Poa annua, at an application rate of 1.28 kg of active substance per hectare.

ALOMY [6] = experiment: Pre-emergence action against ALOMY, 1280 g/ha; format: in vivo, Alopecurus myosuroides; conditions: visual scoring after about 3 weeks vs untreated controls, 100% = plants have died, 0% = like control plants
Text: as §1

SETVI = experiment: Pre-emergence action against SETVI, 1280 g/ha; format: in vivo, Setaria viridis; conditions: visual scoring after about 3 weeks vs untreated controls, 100% = plants have died, 0% = like control plants
Text: as §1

VERPE [7] = experiment: Pre-emergence action against VERPE, 1280 g/ha; format: in vivo, Veronica persica; conditions: scored visually after about 3 weeks vs untreated controls (100% = plants have died)
Text: as §1

AMARE [8] = experiment: Pre-emergence action against AMARE, 1280 g/ha; format: in vivo, Amaranthus retroflexus; conditions: scored visually after about 3 weeks vs untreated controls (100% = plants have died)
Text: as §1

ALOMY [9] = experiment: Post-emergence action against ALOMY, 1.28 kg/ha; format: in vivo, Alopecurus myosuroides; conditions: dosage 1280 g/ha, visual rating about 3 weeks after treatment vs untreated controls
Procedure: as §2

MATIN [10] = experiment: Post-emergence action against MATIN, 1.28 kg/ha; format: in vivo, Tripleurospermum inodorum (Matricaria inodora); conditions: dosage 1280 g/ha, visual rating about 3 weeks after treatment vs untreated controls (100% = plants died)
Procedure: as §2

POAAN [11] = experiment: Post-emergence action against POAAN, 1.28 kg/ha; format: in vivo, Poa annua; conditions: dosage 1280 g/ha, visual rating about 3 weeks after treatment vs untreated controls
Procedure: as §2

VERPE [12] = experiment: Post-emergence action against VERPE, 1.28 kg/ha; format: in vivo, Veronica persica; conditions: dosage 1280 g/ha, visual rating about 3 weeks after treatment vs untreated controls (100% = plants died)
Procedure: as §2

ECHCG = experiment: Pre-emergence action against ECHCG, 1280 g/ha; format: in vivo, Echinochloa crus-galli; conditions: visual scoring after about 3 weeks vs untreated controls, 100% = plants have died, 0% = like control plants
Text: as §1

DIGSA [13] = experiment: Post-emergence action against DIGSA, 1.28 kg/ha; format: in vivo, Digitaria sanguinalis; conditions: dosage 1280 g/ha, visual rating about 3 weeks after treatment vs untreated controls
Procedure: as §2

STEME [14] = experiment: Post-emergence action against STEME, 1.28 kg/ha; format: in vivo, Stellaria media; conditions: dosage 1280 g/ha, visual rating about 3 weeks after treatment vs untreated controls (100% = plants died)
Procedure: as §2

SMILES | Pre-emergence action against LOLRI (LOLRI) | Pre-emergence action against POAAN (POAAN [1]) | Pre-emergence action against MATIN (MATIN [2]) | Pre-emergence action against DIGSA (DIGSA [3]) | Pre-emergence action against STEME (STEME [4]) | Post-emergence action against AMARE (AMARE [5]) | Pre-emergence action against SETVI (SETVI) | Pre-emergence action against VERPE (VERPE [7]) | Pre-emergence action against AMARE (AMARE [8]) | Post-emergence action against ALOMY (ALOMY [9]) | Post-emergence action against MATIN (MATIN [10]) | Post-emergence action against POAAN (POAAN [11]) | Post-emergence action against VERPE (VERPE [12]) | Post-emergence action against DIGSA (DIGSA [13]) | also measured
COC(=O)[C@@H](C)Oc1nn(-c2ccccc2F)c(-c2cnccn2)c1Br [Example I-001] | 90% | 100% | 90% | 90% | 100% | 90% | 90% | 100% | 100% |  |  |  |  |  | Pre-emergence action against ALOMY (ALOMY [6]): 90%
O=C(COc1nn(-c2ccccc2F)c(-c2ccc(F)nc2)c1Br)N1CCSC1=O [Example X-011] |  | 100% | 90% | 100% |  | 90% | 100% | 100% | 100% | 90% | 100% | 100% | 90% |  | Pre-emergence action against ECHCG (ECHCG): 100%
O=C(O)C1CCCN(C(=O)COc2nn(-c3ccccc3F)c(-c3cncc(F)c3)c2Br)C1 (centres unmarked) [Example X-033] |  | 100% | 90% | 90% | 90% | 100% | 90% | 90% | 90% | 100% | 100% | 100% | 100% | 90% | Pre-emergence action against ALOMY (ALOMY [6]): 90%
N#CCCNC(=O)COc1nn(-c2ccccc2F)c(-c2ccc(F)cn2)c1Br [II-005] |  |  |  |  |  |  |  |  | 90% |  |  |  |  |  | 
COC(=O)CNC(=O)COc1nn(-c2ccccc2F)c(-c2ccc(F)cn2)c1Br [II-013] | 100% | 100% | 90% | 100% | 100% |  | 100% | 100% | 90% | 90% | 90% | 90% | 90% |  | Pre-emergence action against ALOMY (ALOMY [6]): 90%; Pre-emergence action against ECHCG (ECHCG): 90%
O=C(COc1nn(-c2ccc(F)cc2F)c(-c2ccc(F)cn2)c1Br)NO [II-018] |  |  |  |  |  | 100% |  |  |  |  | 90% |  |  |  | 
CCOC(=O)COc1nn(-c2ccccc2F)c(-c2ccnnc2)c1C#N [IV-003, Ethyl {[4-cyano-1-(2-fluorophenyl)-5-(pyridazin-4-yl)-1H-pyrazol-3-yl]oxy}acetate] |  |  |  |  |  | 90% |  |  |  | 100% |  |  |  |  | pest or weed control at 1280 g/ha (POAAN [1]; Poa annua, 504 h): 90%; pest or weed control at 1280 g/ha (MATIN [2]; Tripleurospermum inodorum, 504 h): 90%; pest or weed control at 1280 g/ha (STEME [4]; Stellaria media, 504 h): 100%; pest or weed control at 1280 g/ha (VERPE [12]; Veronica persica, 504 h): 90%; pest or weed control at 1280 g/ha (SETVI; Setaria viridis, 504 h): 100%; pest or weed control at 1280 g/ha (VERPE [7]; Veronica persica, 504 h): 100%; pest or weed control at 1280 g/ha (AMARE [8]; Amaranthus retroflexus, 504 h): 90%
COC(=O)[C@@H](C)Oc1nn(-c2ccccc2F)c(-c2cncnc2)c1Cl [VI-017] |  | 90% | 100% |  | 90% | 90% |  | 100% | 100% |  |  |  |  |  | Pre-emergence action against ALOMY (ALOMY [6]): 90%
COC(=O)C(C)Oc1nn(-c2ccccc2)c(-c2ccc(C)nc2)c1Cl (centres unmarked) [VII-013] |  | 100% |  | 90% |  |  |  | 100% |  |  |  |  | 100% | 90% | 
COC(=O)C(C)Oc1nn(-c2ccccc2)c(-c2ccc(Cl)nc2)c1Cl (centres unmarked) [VII-017] |  | 90% |  | 90% |  |  |  | 100% | 90% |  |  |  | 100% | 90% | 
CCOC(=O)COc1nn(-c2ccccc2F)c(-c2ccc(F)nc2)c1SC [VII-021] |  | 90% |  |  |  |  |  |  | 90% |  |  |  |  |  | 
COC(=O)COc1nn(-c2ccccc2F)c(-c2ccc(OC)nc2)c1Br [VII-022] |  |  |  |  |  |  |  | 90% |  |  |  |  | 90% |  | 
CSc1c(OCC(=O)O)nn(-c2ccccc2F)c1-c1ccc(F)nc1 [VII-056] | 90% | 90% | 90% | 100% | 90% | 100% | 90% |  | 90% | 100% | 100% | 100% | 90% | 90% | 
CCOC(=O)COc1nn(-c2ccccc2F)c(-c2ccc(OCC)nc2)c1Br [VII-127] |  |  |  |  | 90% |  |  |  |  |  |  |  |  |  | 
CCOC(=O)COc1nn(-c2ccccc2F)c(-c2cnc(F)c(F)c2)c1Br [VII-148] | 90% | 100% | 90% | 100% | 90% | 100% | 90% | 90% | 100% | 100% | 100% | 100% |  | 100% | Pre-emergence action against ECHCG (ECHCG): 90%
COC(=O)COc1nn(-c2cc(F)ccc2F)c(-c2ccnc(F)c2)c1C#N [VIII-008] | 100% | 100% | 100% | 100% | 100% | 90% | 100% | 100% | 100% | 100% | 90% | 100% | 90% | 90% | Post-emergence action against STEME (STEME [14]): 90%; Pre-emergence action against ECHCG (ECHCG): 100%
